Results reported in US7947435B2, “Neuronal regeneration material screening method by ex vivo model” (Seoul National University Industry Foundation, priority 2007, dated 2011).

Key:
spinal cord slices [1] = assay: Histological analysis of spinal cord tissue slices (Luxol fast blue, H&E); assay type: cell-based, Sprague-Dawley rats; conditions: spinal cord slices treated with 0.5 mg/ml lysolecithin for 17 hours, compared with the control; FIG. 1
Text: (§1) <1-2> Preparation of Spinal Cord Tissue Slices Sprague-Dawley rats at 16 days old were anesthetized and the spinal cord was extracted. The spinal cord was put into ice-cold HBSS (Hanks balanced salt solution). Thoracic and lumbar spinal cords were cult into 400 μm in thickness by using a tissue chopper (McIlwain tissue chopper, The Mickle Laboratory Engineering Co. LTD, England). Several spinal cord slices were loaded on 0.4 μm filter (Millicell-CM filters, Millipore, USA) placed on a 6 well plate. The spinal cord slices were cultured in 1 ml of 25% horse serum (Invitrogen, USA) containing 50% MEM (Invitrogen, USA) supplemented with Earl's salts, 25% HBSS (Invitrogen, USA), 20 mM HEPES (Sigma, USA) and 6 mg/ml of D-glucose (Duchefa, Netherlands). The culture conditions were 5% CO2, 37° C. and the medium was replaced with a fresh medium twice a week. <1-3> Demyelination by Lysolecithin
(§2) The spinal cord slices were cultured in vitro (DIV, days in vitro) for 7 days. After treating 0.5 mg/ml of lysolecithin, the slices were cultured at 37° C. for 17 hours to induce demyelination of axons (Birgbauer et al., J Neurosci Res, 78, 157-166, 2004). After inducing demyelination, the medium containing lysolecithin was replaced with 1 ml of fresh medium. […]

spinal cord slices [2] = assay: Immunofluorescent staining of lysolecithin-demyelinated spinal cord slices; assay type: cell-based, Sprague-Dawley rats; conditions: spinal cord slices treated with 0.5 mg/ml lysolecithin for 17 hours, compared with the control; FIG. 1
Text: as §1, §2

lysolecithin
demyelination (myelin, Luxol fast blue staining) (spinal cord slices [1]): serious demyelination was observed
MBP expression (spinal cord slices [2]): decreased
